Results from the supplement of paper PMC11451515.

Experiments:
Conditions in all cases: 48 h
[1] = tested on: P12-Ichikawa; test: cell viability relative to DMSO control; higher = less cytotoxic
How it was run: (§1)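 Viability is expressed as a percentage of DMSO wells within each plate, and cell-free wells serve as background. Seeding densities in the 1536-well plates (5 μl) were 500 cells/well for NOMO1 or SEM leukemia cells and 1000 cells/well for P12-Ichikawa. Each line was adapted for at least four passages in each medium. Library compounds in DMSO were pin-dosed at 47 μM to 0.79 nM (11 points, threefold), and CellTiter-Glo One luminescence was read after 48 h at 37°C.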

[2] = tested on: SEM cells; test: as above
How it was run: as §1

[3] = tested on: NOMO1; test: AUC of viability dose-response curve (% viability x log10 dose units); higher = less sensitive
How it was run: (§2)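 Medium-adapted leukemia cells in 1536-well plates, at 500 or 1000 cells/well, were incubated for 48 h at 37°C with library compounds in DMSO at 11 threefold doses from 47 μM to 0.79 nM. CellTiter-Glo One luminescence normalised per plate to DMSO and cell-free wells was fitted with a four-parameter log-logistic model over log10 doses. Area under the curve was integrated from this fit by trapezoidal rule, with curves beyond full viability scaled and failed quality-control curves removed.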

[4] = tested on: P12-Ichikawa; test: as above
How it was run: as §2

[5] = tested on: SEM cells; test: as above
How it was run: as §2

[6] = tested on: NOMO1; test: cell viability relative to DMSO control; higher = less cytotoxic
How it was run: as §1

O=C(c1ccc(F)cc1)N1CCC[C@H](c2nc(-c3ccc(F)cc3)no2)C1
cell viability [%]
Conditions	HPLM + 10% dialyzed FBS	RPMI 5 mM glucose + 10% FBS	RPMI 5 mM glucose + 10% dialyzed FBS
[1], 0.000781 µM	119	115	120
[1], 0.00234 µM	121	122	128
[1], 0.00702 µM	120	122	123
[1], 0.0211 µM	124	128	119
[1], 0.0632 µM	117	144	117
[1], 0.19 µM	121	120	126
[1], 0.569 µM	116	128	116
[1], 1.71 µM	113	116	105
[1], 5.12 µM	107	111	118
[1], 15.4 µM	113	114	110
[1], 46.1 µM	106	115	111
[2], 0.000781 µM	119	119	104
[2], 0.00234 µM	120	111	103
[2], 0.00702 µM	122	124	130
[2], 0.0211 µM	112	121	125
[2], 0.0632 µM	128	128	105
[2], 0.19 µM	114	117	116
[2], 0.569 µM	111	111	118
[2], 1.71 µM	104	112	113
[2], 5.12 µM	102	99.4	102
[2], 15.4 µM	105	106	101
[2], 46.1 µM	115	116	128

AUC of viability dose-response curve
Conditions	[3]	[4]	[5]
HPLM + 10% dialyzed FBS	467	460	453
RPMI 5 mM glucose + 10% FBS	453	459	455
RPMI 5 mM glucose + 10% dialyzed FBS	472	459	475

ClC1=CC=C(C=C1)C(C#N)C2=C(Cl)C=C(C=C2Cl)N3\N=C/C(=O)NC3=O (stereo not drawn)
cell viability [%]
Conditions	[1]	[2]	[6]
HPLM + 10% dialyzed FBS, 0.000781 µM	110	87.4	82.4
HPLM + 10% dialyzed FBS, 0.00234 µM	106	43.9	101
HPLM + 10% dialyzed FBS, 0.00702 µM	106	104	99.5
HPLM + 10% dialyzed FBS, 0.0211 µM	110	83.7	111
HPLM + 10% dialyzed FBS, 0.0632 µM	110	91.8	112
HPLM + 10% dialyzed FBS, 0.19 µM	115	94.8	103
HPLM + 10% dialyzed FBS, 0.569 µM	104	91.3	125
HPLM + 10% dialyzed FBS, 1.71 µM	110	93.9	104
HPLM + 10% dialyzed FBS, 5.12 µM	104	86.4	97.8
HPLM + 10% dialyzed FBS, 15.4 µM	86.3	91.6	102
HPLM + 10% dialyzed FBS, 46.1 µM	86.4	107	107
RPMI 5 mM glucose + 10% FBS, 0.000781 µM	91	90.6	100
RPMI 5 mM glucose + 10% FBS, 0.00234 µM	94.7	47.9	93.4
RPMI 5 mM glucose + 10% FBS, 0.00702 µM	93.7	96.6	109
RPMI 5 mM glucose + 10% FBS, 0.0211 µM	94.7	92.5	102
RPMI 5 mM glucose + 10% FBS, 0.0632 µM	93.8	87.1	93.1
RPMI 5 mM glucose + 10% FBS, 0.19 µM	101	98.4	94.6
RPMI 5 mM glucose + 10% FBS, 0.569 µM	106	90.1	114
RPMI 5 mM glucose + 10% FBS, 1.71 µM	98.7	90.2	107
RPMI 5 mM glucose + 10% FBS, 5.12 µM	101	96.3	106
RPMI 5 mM glucose + 10% FBS, 15.4 µM	85.1	82.3	100
RPMI 5 mM glucose + 10% FBS, 46.1 µM	82.2	76.7	104
RPMI 5 mM glucose + 10% dialyzed FBS, 0.000781 µM	95.7	93.1	80.1
RPMI 5 mM glucose + 10% dialyzed FBS, 0.00234 µM	99.3	42.5	92.6
RPMI 5 mM glucose + 10% dialyzed FBS, 0.00702 µM	104	99.2	86.5
RPMI 5 mM glucose + 10% dialyzed FBS, 0.0211 µM	100	100	95.3
RPMI 5 mM glucose + 10% dialyzed FBS, 0.0632 µM	105	106	87.1
RPMI 5 mM glucose + 10% dialyzed FBS, 0.19 µM	102	119	110
RPMI 5 mM glucose + 10% dialyzed FBS, 0.569 µM	93.7	104	99.6
RPMI 5 mM glucose + 10% dialyzed FBS, 1.71 µM	108	94.6	96.7
RPMI 5 mM glucose + 10% dialyzed FBS, 5.12 µM	96.3	109	94.6
RPMI 5 mM glucose + 10% dialyzed FBS, 15.4 µM	79.6	95.8	103
RPMI 5 mM glucose + 10% dialyzed FBS, 46.1 µM	76	89.7	98.4

AUC of viability dose-response curve
Conditions	[3]	[4]	[5]
HPLM + 10% dialyzed FBS	453	460	428
RPMI 5 mM glucose + 10% FBS	458	454	415
RPMI 5 mM glucose + 10% dialyzed FBS	455	459	451
